test system: Ovariectomized rats; test: Vaginal keratinization test on ovariectomized rats (Example C.2); type: in vivo; conditions: Rattus norvegicus, po, estradiol undecylate induced keratinization, per os once daily on days 1-3, active dose = 50% of rats show complete suppression, read-out: LAD (lowest active dose)
Excerpt: The property to delay the metabolism of retinoic acid can be evidenced in various in vitro and in vivo experiments. A particular in vitro procedure is described in example C.1 and tests the inhibitory activity of the compounds of formula (I) on the metabolism of retinoic acid in human breast cancer cells. The compounds of the present invention were also effective in suppressing induced vaginal keratinization effects in ovariectomized rats as is described in example C.2.
“Vaginal Keratinization Test on Ovariectomized Rats”
Ovariectomized rats were injected subcutaneously with a sesame oil solution containing 100 μg of estradiol undecylate in a volume of 0.1 ml per 100 g body weight and control animals were injected with sesame oil. On day one, two and three, test animals were treated once daily with a per os dose of the test compound and control animals with the drug vehicle (PEG 200). One day after the last treatment, the animals were sacrificed and their vaginas were processed for histological evaluation according to the method described in J. Pharmacol. Exp. Ther. 261(2), 773–779 (1992). A dose at which 50% of the tested rats show complete suppression of the estradiol undecylate induced keratinization effects is defined as an active dose. Table 23 lists the lowest active dose (LAD in mg/kg) of the compounds of formula (I) which were tested.

SMILES	minimal effective dose [mg/kg]
CC(=O)Nc1ccc(C(C(C)C)n2ccnc2)cc1 (racemic) [Compound 521, (±)-N-[4-[1-(1H-imidazol-1-yl)-2-methylpropyl]phenyl]acetamide]	10

same assay, conditions: estradiol undecylate induced keratinization, per os once daily on days 1-3, active dose = 50% of rats show complete suppression

SMILES	LAD (lowest active dose) [mg/kg]
CCCCOc1ccc(CC(=O)Nc2ccc(C(C(C)N(C)C)n3ccnc3)cc2)cc1 (single isomer, unassigned) [Compound 319]	>5.00
CCCC(C)C(c1ccc(NC(=O)Cc2ccc(Cl)cc2)cc1)n1ccnc1 (single isomer, unassigned) [Compound 374]	2.50
COc1ccc(CC(=O)Nc2ccc(C(C3CCCN(C)C3)n3ccnc3)cc2)cc1OC (single isomer, unassigned) [Compound 410]	>5.00
CC(C(c1ccc(NC(=O)Cc2ccc3c(c2)OCO3)cc1)n1cncn1)N(C)C (single isomer, unassigned) [Compound 325]	2.50
O=C(Nc1ccc(C(c2cccc(C(F)(F)F)c2)n2ccnc2)cc1)Nc1ccccc1F (racemic) [Compound 714]	2.50
CCOc1ccc(CCC(=O)Nc2ccc(C(C(CC)CC)n3ccnc3)cc2)cc1 (single isomer, unassigned) [Compound 62]	>5.00
COc1ccc(CC(=O)N(C)c2ccc(C(C(C)N(C)C)n3cncn3)cc2)cc1OC (single isomer, unassigned) [Compound 438]	>2.50
COc1ccc(CC(=O)Nc2ccc(C(C3CCCCN3C)n3ccnc3)cc2)cc1OC (single isomer, unassigned) [Compound 411]	2.50
COc1ccc(CC(=O)Nc2ccc(C(C(C)O)n3ccnc3)cc2)cc1OC.O (racemic) [Compound 402, (±)-(B)-3,4-dimethoxy-N-[4-[2-hydroxy-1-(1H-imidazol-1-yl)propyl]phenyl]benzeneacetamide monohydrate]	>5.00
COc1ccc(CC(=O)Nc2ccc(C(C(C)CN(C)C)n3ccnc3)cc2)cc1OC (single isomer, unassigned) [Compound 391]	>5.00
CC(C(c1ccc(NC(=S)Nc2nc3ccccc3s2)cc1)n1ccnc1)N(C)C (single isomer, unassigned) [Compound 704]	>5.00
CC(=O)Nc1ccc(C(C(C)N(C)C)n2cncn2)cc1 (racemic) [Compound 631, (±)-(B)-N-[4-[2-(dimethylamino)-1-(1H-1,2,4-triazol-1-yl)propyl]phenyl]acetamide]	>2.50
CC(=O)Nc1ccc(C(C=CC(C)C)n2ccnc2)cc1 (racemic) [Compound 532]	>10.00
CC(C(c1ccc(NC(=O)Cc2ccc3c(c2)OCO3)cc1)n1ccnc1)N(C)C (single isomer, unassigned) [Compound 337]	2.50
COc1cc(CC(=O)Nc2ccc(C(C(C)N(C)C)n3ccnc3)cc2)ccc1Cl (single isomer, unassigned) [Compound 310]	2.50
COc1ccc(CC(=O)Nc2ccc(C(C(C)N(C)C)n3cncn3)cc2)cc1OC (single isomer, unassigned) [Compound 278]	2.50
COc1ccc(CC(=O)Nc2ccc(C(C(C)CO)n3ccnc3)cc2)cc1OC (racemic) [Compound 394, (±)-(B)-3,4-dimethoxy-N-[4-[1-(1H-imidazol-1-yl)-2-(hydroxymethyl)propyl]phenyl]-benzeneacetamide]	>2.50
COc1ccc(NC(=O)Nc2ccc(C(C(C)N(C)C)n3cncn3)cc2)cc1OC (single isomer, unassigned) [Compound 717]	>2.50
CC(C(c1ccc(NC(=O)Cc2ccc3c(c2)OCCO3)cc1)n1cncn1)N(C)C (single isomer, unassigned) [Compound 322]	>2.50
CN(C)CC(c1ccc(NC(=O)N2CCN(C)CC2)cc1)n1ccnc1 (racemic) [Compound 436]	>5.00
CNC(C)C(c1ccc(NC(=O)Cc2ccc(OC)c(OC)c2)cc1)n1ccnc1.O (single isomer, unassigned) [Compound 401]	>2.50
Cc1ccc(CC(=O)Nc2ccc(C(CN(C)C)n3ccnc3)cc2)cc1C (racemic) [Compound 433]	>2.50
COc1ccc(CC(=O)N(C)c2ccc(C(C(C)N(C)C)n3ccnc3)cc2)cc1OC (single isomer, unassigned) [Compound 439]	>2.50
Cc1cc(CC(=O)Nc2ccc(C(C(C)N(C)C)n3ccnc3)cc2)cc(C)c1C (single isomer, unassigned) [Compound 308]	>2.50
COc1ccc(CC(=O)Nc2ccc(C(C(C)N(Cc3ccccc3)Cc3ccccc3)n3ccnc3)cc2)cc1OC (single isomer, unassigned) [Compound 419]	>5.00

SMILES	LAD (lowest active dose) [mg/kg]
CCC(CC)C(c1ccc(NC(=O)C(O)c2ccc(Cl)cc2)cc1)n1cncn1 (single isomer, unassigned) [Compound 20]	2.50
CC(C(c1ccc(NC(=O)Cc2ccc3c(c2)OCO3)cc1)n1ccnc1)N(C)C (single isomer, unassigned) [Compound 340]	2.50
COc1ccc(CCCC(=O)Nc2ccc(C(C(C)N(C)C)n3cncn3)cc2)cc1OC (single isomer, unassigned) [Compound 326]	>2.50
COc1ccc(CC(=O)Nc2ccc(C(C(C)OC(=O)N(Cc3ccccc3)Cc3ccccc3)n3ccnc3)cc2)cc1OC (single isomer, unassigned) [Compound 417]	>5.00
COc1ccc(CC(=O)Nc2ccc(C(C(C)N(C)Cc3ccccc3)n3ccnc3)cc2)cc1OC (single isomer, unassigned) [Compound 398]	>5.00
COc1ccc(CC(=O)Nc2ccc(C(C(C)N(C)C)n3ccnc3)cc2)cc1C (single isomer, unassigned) [Compound 312]	>2.50
COc1ccc(CC(=O)Nc2ccc(C(C(C)N(C)C)n3cncn3)cc2)cc1C (single isomer, unassigned) [Compound 286]	>2.50
C/C(=C\c1ccccc1)C(=O)Nc1ccc(C(C(C)N(C)C)n2cncn2)cc1 (single isomer, unassigned) [Compound 632]	>2.50
CC(C(c1ccc(NC(=O)Cc2ccc(N(C)C)cc2)cc1)n1ccnc1)N(C)C (single isomer, unassigned) [Compound 317]	>5.00
COc1ccc(CC(=O)Nc2ccc(C(C(C)N(C)Cc3ccccc3)n3ccnc3)cc2)cc1OC (single isomer, unassigned) [Compound 396]	>2.50
COc1ccc(CC(=O)Nc2ccc(C(C(C)CN3CCCCC3)n3ccnc3)cc2)cc1OC (single isomer, unassigned) [Compound 390]	>2.50
CCN(CC)C(C)C(c1ccc(NC(C)=O)cc1)n1ccnc1 (single isomer, unassigned) [Compound 554]	2.50
COc1ccc(NC(=O)Nc2ccc(C(c3cccc(C(F)(F)F)c3)n3ccnc3)cc2)cc1 (racemic) [Compound 716]	>2.50
CCC(CC)C(c1ccc(NC(=O)CN(C)C)cc1)n1ccnc1 (stereo not drawn) [Compound 55]	>2.50
COc1cc(CC(=O)Nc2ccc(C(C(C)N(C)C)n3cncn3)cc2)ccc1C (single isomer, unassigned) [Compound 294]	>2.50
CCCC(c1ccc(NC(=O)Cc2ccc(Cl)cc2)cc1)(C(CC)CC)n1ccnc1 (racemic) [Compound 766]	>2.50
Cc1ccc(CC(=O)Nc2ccc(C(C(C)N(C)C)n3cncn3)cc2)cc1C (single isomer, unassigned) [Compound 280]	>2.50
CCCN(C)C(C)C(c1ccc(NC(=O)Cc2ccc(OC)c(OC)c2)cc1)n1ccnc1 (single isomer, unassigned) [Compound 414]	5.00
COc1cc(CC(=O)Nc2ccc(C(C(C)N(C)C)n3cncn3)cc2)ccc1C (single isomer, unassigned) [Compound 295]	>2.50
CCCCCC(C)C(c1ccc(NC(=O)Cc2ccc(OC)c(OC)c2)cc1)n1ccnc1 (single isomer, unassigned) [Compound 384]	>2.50
COc1ccc(C(=O)Nc2ccc(C(C(C)N(C)C)n3cncn3)cc2)cc1OC (single isomer, unassigned) [Compound 324]	>2.50
CCOC(=O)C(C)C(c1ccc(NC(=O)Cc2ccc(Cl)cc2)cc1)n1cncn1 (stereo not drawn) [Compound 624]	>2.50
COc1ccc(NC(=O)Nc2ccc(C(C(C)N(C)C)n3cncn3)cc2)cc1OC (single isomer, unassigned) [Compound 720]	>2.50
CCCN(C)C(C)C(c1ccc(NC(C)=O)cc1)n1ccnc1 (mixture of isomers) [Compound 570]	>5.00
CCCCN(C)C(C)C(c1ccc(NC(C)=O)cc1)n1ccnc1 (mixture of isomers) [Compound 562]	5.00

Source: patent publication US7179825B2, “Retinoic acid mimetic anilides” (Janssen Pharmaceutica N.V., priority 1997, dated 2007)
